SMILES strings stand for the structures. Bounds are passed on as bounds.

The target of the test is T1, hFXR (Homo sapiens, UniProt Q96RI1).
T1 construct: expressed in transfected cells; host or cells: CV-1 cells
T1 sequence (Q96RI1 1-486): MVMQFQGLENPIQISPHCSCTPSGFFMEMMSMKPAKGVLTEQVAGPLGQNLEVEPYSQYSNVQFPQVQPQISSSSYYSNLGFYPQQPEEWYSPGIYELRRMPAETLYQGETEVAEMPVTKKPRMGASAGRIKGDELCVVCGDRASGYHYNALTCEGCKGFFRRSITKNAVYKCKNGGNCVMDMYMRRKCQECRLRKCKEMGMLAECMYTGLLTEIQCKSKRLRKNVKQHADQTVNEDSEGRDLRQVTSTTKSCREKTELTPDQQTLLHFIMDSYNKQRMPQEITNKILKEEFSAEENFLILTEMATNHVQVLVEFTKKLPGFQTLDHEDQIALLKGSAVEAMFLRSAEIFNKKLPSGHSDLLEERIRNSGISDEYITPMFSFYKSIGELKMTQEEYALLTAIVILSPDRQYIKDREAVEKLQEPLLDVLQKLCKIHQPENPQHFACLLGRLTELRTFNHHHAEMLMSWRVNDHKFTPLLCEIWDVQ
T1 sequence (P19793 1-462 partner): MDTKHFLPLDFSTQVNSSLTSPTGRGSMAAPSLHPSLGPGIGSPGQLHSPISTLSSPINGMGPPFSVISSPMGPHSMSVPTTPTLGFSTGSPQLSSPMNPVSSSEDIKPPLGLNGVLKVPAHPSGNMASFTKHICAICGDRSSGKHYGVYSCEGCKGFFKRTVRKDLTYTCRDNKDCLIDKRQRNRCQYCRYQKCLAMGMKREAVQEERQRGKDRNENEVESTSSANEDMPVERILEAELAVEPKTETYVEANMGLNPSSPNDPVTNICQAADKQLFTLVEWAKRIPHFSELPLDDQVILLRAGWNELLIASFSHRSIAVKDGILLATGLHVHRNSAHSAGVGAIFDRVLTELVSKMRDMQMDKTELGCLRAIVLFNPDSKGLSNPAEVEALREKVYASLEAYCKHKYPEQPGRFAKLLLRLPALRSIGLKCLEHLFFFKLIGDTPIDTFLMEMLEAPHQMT
In words: In Vitro FXR Assay (TK). The following applies: CV-1 cells transfected with hFXR, hRXR, TK-ECRE-luc and pCMX-YFP; compounds incubated 18 hrs; luminescence. The format is cell-based. The procedure, abridged:
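Luciferase read-out after 18 h compound exposure of CV-1 cells carrying transfected hFXR plus hRXR expression plasmids, TK-ECRE-luc reporter and pCMX-YFP. Cells cultured in charcoal-stripped FBS before transfection; compounds serially diluted in DMSO.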
Usually EC50 stands for the concentration giving half of the maximal effect. A higher EC50 goes with a need for much substance. `COc1ccc(-c2ccc(CN(C(=O)CC(C)(C)C)c3nccc4cc(OC5CCNCC5)ccc34)cc2)cc1C` [Compound 28, N-((4′-Methoxy-3′-methyl-[1,1′-biphenyl]-4-yl)methyl)-3,3-dimethyl-N-(6-(piperidin-4-yloxy)isoquinolin-1-yl)butanamide] yielded an EC50 of more than 10 µM.

Compound `COc1ccc(-c2ccc(CN(C(=O)CC(C)(C)C)c3nccc4cc(OC5CNC5)ccc34)cc2)cc1C` [Compound 28.01, N-(6-(Azetidin-3-yloxy)isoquinolin-1-yl)-N-((4′-methoxy-3′-methyl-[1,1′-biphenyl]-4-yl)methyl)-3,3-dimethylbutanamide] gave a concentration giving a half-maximal response (EC50) of 1 to 10 µM.

`COc1ccc(-c2ccc(CN(C(=O)CC(C)(C)C)c3nccc4cc(OCC(=O)O)ccc34)cc2)cc1C` [Compound 29, 2-((1-(N-((4′-Methoxy-3′-methyl-[1,1′-biphenyl]-4-yl)methyl)-3,3-dimethylbutanamido)isoquinolin-6-yl)oxy)acetic acid] displayed an EC50 of more than 10 µM.

In turn, `COc1ccc(-c2ccc(CN(C(=O)CC(C)(C)C)c3nccc4cc(COCC(=O)O)ccc34)cc2)cc1C` [Compound 29.01, 2-((1-(N-((4′-Methoxy-3′-methyl-[1,1′-biphenyl]-4-yl)methyl)-3,3-dimethylbutanamido)isoquinolin-6-yl)methoxy)acetic acid] had an EC50 of 1 to 10 µM.

Compound `COc1ccc(-c2ccc(CN(C(=O)CC(C)(C)C)c3nccc4cc(OC5CN(C)C5)ccc34)cc2)cc1C` [Compound 30, N-((4′-Methoxy-3′-methyl-[1,1′-biphenyl]-4-yl)methyl)-3,3-dimethyl-N-(6-((1-methylazetidin-3-yl)oxy)isoquinolin-1-yl)butanamide] returned an EC50 of more than 10 µM.

As for `COc1ccc(-c2ccc(CN(C(=O)CC(C)(C)C)c3nccc4cc(OC(C)CO)ccc34)cc2)cc1C` (centres unmarked) [Compound 31, N-(6-((1-Hydroxypropan-2-yl)oxy)isoquinolin-1-yl)-N-((4′-methoxy-3′-methyl-[1,1′-biphenyl]-4-yl)methyl)-3,3-dimethylbutanamide], the EC50 was not above 1 µM.

`COc1ccc(-c2ccc(CN(C(=O)CC(C)(C)C)c3nccc4cc(OCCS(C)(=O)=O)ccc34)cc2)cc1C` [Compound 32, N-((4′-Methoxy-3′-methyl-[1,1′-biphenyl]-4-yl)methyl)-3,3-dimethyl-N-(6-(2-(methylsulfonyl)ethoxy)isoquinolin-1-yl)butanamide] came in with an EC50 not above 1 µM.

On to `COc1ccc(-c2ccc(CN(C(=O)CC(C)(C)C)c3nccc4cc(OCC[S+](C)[O-])ccc34)cc2)cc1C` (centres unmarked) [Compound 33, N-((4′-Methoxy-3′-methyl-[1,1′-biphenyl]-4-yl)methyl)-3,3-dimethyl-N-(6-(2-(methylsulfinyl)ethoxy)isoquinolin-1-yl)butanamide], for which the EC50 is not above 1 µM.

For the origin of these results see patent US20200131132A1, “FARNESOID X RECEPTOR AGONISTS AND USES THEREOF” (Metacrine, Inc., priority 2017, published 2020).
